Where “and” joins values, the source holds several entries; their conditions need not be identical. Equal entries are not always repeated. Where two headings read alike, the source gives them in different places.
Tests used:
[1] = target: T1, GHS-R1a receptor (HEK293 cells expressing GHS-R1a receptor) (Homo sapiens, UniProt Q92847); test: Fluorescence functional assay (ghrelin receptor), Method B2, agonist and antagonist mode; assay type: cell-based; conditions: functional activity as an antagonist at the ghrelin receptor, Methods B2 and B3
T1 construct: host or cells: HEK293
Summary of the method: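 Calcium flux read by ImageTrak epifluorescence in HEK293 cells stably expressing GHS-R1a, loaded 1 h at 37 °C with Calcium-3 dye; buffer HBSS/20 mM Hepes, pH 7.4, with probenecid and BSA. Agonists injected after 10 s baseline, read 50 s more; antagonists 3 min. Sigmoidal fits gave EC50 or IC50.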

[2] = Plasma protein binding (equilibrium dialysis), Method B5; assay type: in vitro ADME; conditions: 60 min at 37° C., typically 10 μM; for fraction unbound at 60 min, 10 μM: human plasma
From the text: B5. Plasma Protein Binding
The pharmacokinetic and pharmacodynamic properties of drugs are largely a function of the reversible binding of drugs to plasma or serum proteins such as albumin and α1-acid glycoprotein. In general, only unbound drug is available for diffusion or transport across cell membranes, and for interaction at the pharmacological target. On the other hand, drugs with low plasma protein binding generally have large volumes of distribution and rapid clearance since only unbound drug is available for glomerular filtration and, in some cases, hepatic clearance. Thus, the extent of plasma protein binding can influence efficacy, distribution and elimination. The ideal range for plasma protein binding is in the range of 87-98% for most drug products.
Protein binding studies were performed using human plasma. Briefly, 96-well microplates were used to incubate various concentrations of the test article for 60 min at 37° C. A concentration of 10 μM was a typical selection to be employed in this study. Bound and unbound fractions are separated by equilibrium dialysis, where the concentration remaining in the unbound fraction is quantified by LC-MS or LC-MS-MS analysis. […].

CYP2D6 = CYP2D6 (Homo sapiens, UniProt P10635); test: biochemical
CYP3A4 = CYP3A4 (Homo sapiens, UniProt P08684); test: biochemical
[3] = Pharmacokinetic analysis (intravenous and oral), Method B9; assay type: in vivo; conditions: for % F: 2 mg/mL intravenous and 8 mg/mL oral typically employed; for Tmax: individual values; for Vd: read-out: Vz
From the text: B9. Pharmacokinetic Analysis
The pharmacokinetic (PK) behavior of compounds of the invention and their pharmaceutical compositions can be ascertained by methods well known to those skilled in the art and can be used to investigate the pharmacokinetic parameters (elimination half-life, total plasma clearance, etc.) for intravenous, subcutaneous and oral administration of these substances. (Wilkinson, G. R. “Pharmacokinetics: The Dynamics of Drug Absorption, Distribution, and Elimination” in Goodman & Gilman's The Pharmacological Basis of Therapeutics, Tenth Edition, Hardman, J. G.; Limbird, L. E., Eds., McGraw Hill, Columbus, Ohio, 2001, Chapter 1.) See also U.S. Pat. Nos. 7,476,653; 7,491,695; Intl. Pat. Appl. WO 2008/033328 and U.S. Patent Appl. Publ. 2008/0194672. As an example, compound 1505 has the PK profile below.
The determination of PK parameters for additional representative compounds of the invention is presented in the Examples.
A detailed analysis of the pharmacokinetic profile of representative compounds of the invention was conducted using the procedures outlined in Method B9.
A dose level of 2 mg/mL for intravenous administration and 8 mg/mL for oral administration were typically employed.

[4] = Table 10b, 2 mg/mL intravenous typically employed
[5] = plasma, Oral, 8 mg/kg, read-out: Cmax
[6] = plasma, Table 10b, 2 mg/mL intravenous typically employed

CYP3A4, sequence (P08684 whole entry): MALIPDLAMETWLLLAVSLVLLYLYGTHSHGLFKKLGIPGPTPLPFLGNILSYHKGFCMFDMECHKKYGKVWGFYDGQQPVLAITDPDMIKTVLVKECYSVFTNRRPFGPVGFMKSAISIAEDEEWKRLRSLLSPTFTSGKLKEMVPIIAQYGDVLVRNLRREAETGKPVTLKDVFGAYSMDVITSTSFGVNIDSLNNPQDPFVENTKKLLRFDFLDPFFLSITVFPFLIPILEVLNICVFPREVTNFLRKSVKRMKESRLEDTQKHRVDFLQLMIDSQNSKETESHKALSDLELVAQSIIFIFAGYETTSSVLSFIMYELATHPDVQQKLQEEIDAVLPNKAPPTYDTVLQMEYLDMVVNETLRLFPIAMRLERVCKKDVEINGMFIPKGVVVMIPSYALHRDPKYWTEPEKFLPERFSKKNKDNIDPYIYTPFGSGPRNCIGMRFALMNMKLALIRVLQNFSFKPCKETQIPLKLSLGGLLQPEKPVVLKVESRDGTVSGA
T1 sequence (Q92847 whole entry): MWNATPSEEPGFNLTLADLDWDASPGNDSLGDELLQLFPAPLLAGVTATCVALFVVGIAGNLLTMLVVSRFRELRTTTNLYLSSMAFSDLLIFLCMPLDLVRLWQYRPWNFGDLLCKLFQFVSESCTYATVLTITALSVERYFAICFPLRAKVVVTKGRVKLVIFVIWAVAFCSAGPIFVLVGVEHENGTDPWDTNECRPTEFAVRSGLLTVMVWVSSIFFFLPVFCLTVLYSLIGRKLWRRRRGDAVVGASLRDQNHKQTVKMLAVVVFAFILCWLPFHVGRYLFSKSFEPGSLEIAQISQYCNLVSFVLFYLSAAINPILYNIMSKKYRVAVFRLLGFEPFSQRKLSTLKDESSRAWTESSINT
CYP2D6, sequence (P10635 whole entry): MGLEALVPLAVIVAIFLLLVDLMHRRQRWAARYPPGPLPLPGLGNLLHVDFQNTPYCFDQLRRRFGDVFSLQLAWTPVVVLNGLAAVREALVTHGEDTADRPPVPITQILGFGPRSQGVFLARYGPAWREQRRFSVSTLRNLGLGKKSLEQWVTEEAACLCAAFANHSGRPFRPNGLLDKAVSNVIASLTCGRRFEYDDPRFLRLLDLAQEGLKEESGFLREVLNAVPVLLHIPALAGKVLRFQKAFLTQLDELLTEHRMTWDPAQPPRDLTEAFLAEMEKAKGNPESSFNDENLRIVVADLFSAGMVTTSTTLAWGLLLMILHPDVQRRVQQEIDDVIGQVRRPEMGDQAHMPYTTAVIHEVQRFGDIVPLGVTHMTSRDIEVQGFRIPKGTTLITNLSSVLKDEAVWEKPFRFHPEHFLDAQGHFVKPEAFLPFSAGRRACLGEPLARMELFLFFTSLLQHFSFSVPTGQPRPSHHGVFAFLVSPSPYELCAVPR

| Compound | Antagonist Activity [1] | IC50 (CYP2D6) | IC50 (CYP3A4) | Binding (%), Human Plasma Protein Binding [2] [%] | % F ([3]; Table 10b) [%] | Cl [3, 4] [mL/min/kg] | t1/2 [3, 4] [h] | further results |
| --- | --- | --- | --- | --- | --- | --- | --- | --- |
| Cc1cccc(C[C@H]2NC(=O)[C@H](C(C)O)N(C)C(=O)[C@H](C(C)C)NCCOc3ccccc3C[C@H](O)CNC2=O)c1 (some centres unmarked) [Compound 1453] | B (B = 1-10 nM) | 9.21 µM and 9.2 µM | 13.4 µM and 3.7 µM |  |  |  |  | fraction unbound at 60 min, 10 μM [2]: 0.243 |
| CC(C)[C@@H]1NCCOc2ccccc2C[C@H](O)[C@@H](C)NC(=O)[C@@H](Cc2cccc(F)c2)NC(=O)[C@H](C(C)O)N(C)C1=O (some centres unmarked) [Compound 1503] | B (B = 1-10 nM) | 55.8 µM | 14.3 µM |  |  |  |  | fraction unbound at 60 min, 10 μM [2]: 0.221 |
| CC(C)[C@@H]1NCCOc2ccccc2C#C[C@@H](C)NC(=O)[C@@H](Cc2ccccc2)NC(=O)[C@H](C(C)O)N(C)C1=O (some centres unmarked) [Compound 1688] | A (A <1 nM) | 20.2 µM | 8.5 µM |  |  |  |  | fraction unbound at 60 min, 10 μM [2]: 0.091 |
| CC(C)C1NCCOc2ccccc2C#CCNC(=O)C(Cc2c[nH]c3ccccc23)NC(=O)C(C(C)O)N(C)C1=O (centres unmarked) [Compound 1692] | C (C = 10-100 nM) |  |  | 98.2 |  |  |  |  |
| CC(C)C1NCCOc2cc(F)ccc2C#CCNC(=O)C(Cc2c[nH]c3ccccc23)NC(=O)C(C(C)O)N(C)C1=O (centres unmarked) [Compound 1693] | C (C = 10-100 nM) |  |  |  | 5 ± 2 | 35 ± 18 | 0.683 ± 0.067 |  |
| CCC1CCc2ccc(F)cc2OCCNC(C2(C)CC2)C(=O)N(C)C(C(C)O)C(=O)NC(Cc2c[nH]c3ccccc23)C(=O)N1 (centres unmarked) [Compound 1703] | B (B = 1-10 nM) |  |  | 99.5 | 12 ± 6 | 9 ± 6 | 2.45 ± 0.867 |  |
| CC[C@@H]1C#Cc2ccc(F)cc2O[C@H](C)CN[C@@H](C2(C)CC2)C(=O)N(C)[C@@H](C(C)O)C(=O)N[C@H](Cc2c[nH]c3ccccc23)C(=O)N1 (some centres unmarked) [Compound 1707] | B (B = 1-10 nM) |  |  | 99.6 |  | 8 ± 4 | 2.17 ± 0.433 |  |
| CC(C)[C@@H]1NCCOc2ccccc2C#CCNC(=O)[C@@H](Cc2ccccc2)NC(=O)[C@H](C(C)O)N(C)C1=O (some centres unmarked) [Compound 1712] |  |  | 5.8 µM |  |  |  |  | fraction unbound at 60 min, 10 μM [2]: 0.024; F ([3]; Oral, 8 mg/kg): 15 ± 10%; Tmax ([3]; Oral, 8 mg/kg): 15/15/15; AUC(0-inf) ([3]; plasma, Intravenous, 2 mg/kg): 544 ng·h/mL; clearance ([3]; plasma, Intravenous, 2 mg/kg): 62 ± 10 mL/min/kg; half-life ([3]; plasma, Intravenous, 2 mg/kg): 2.3 ± 1.43 h; Vd ([3]; plasma, Intravenous, 2 mg/kg): 13.2 ± 9.57 L/kg; AUC(0-inf) ([3]; plasma, Oral, 8 mg/kg): 336 ng·h/mL; Cmax [3, 5]: 352 ± 297 ng/mL |
| CC(O)[C@H]1C(=O)N[C@H](Cc2c[nH]c3ccccc23)C(=O)N[C@H](C)C#Cc2ccccc2OCCN[C@@H](C2(C)CC2)C(=O)N1C (some centres unmarked) [Compound 1713] | B (B = 1-10 nM) |  |  |  | 14 ± 9 | 30 ± 1 | 1.73 ± 0.417 |  |
| CC(O)[C@H]1C(=O)N[C@H](Cc2c[nH]c3ccccc23)C(=O)N[C@H](C)C#Cc2ccc(F)cc2O[C@H](C)CN[C@@H](C2(C)CC2)C(=O)N1C (some centres unmarked) [Compound 1720] | B (B = 1-10 nM) |  |  |  |  | 33 ± 12 | 1.17 ± 0.25 |  |

Further lines, with some results ahead:

| Antagonist Activity [1] | IC50 (CYP2D6) | IC50 (CYP3A4) | Binding (%), Human Plasma Protein Binding [2] [%] | % F ([3]; Table 10b) [%] | Cl [3, 4] [mL/min/kg] | t1/2 [3, 4] [h] | Compound | further results |
| --- | --- | --- | --- | --- | --- | --- | --- | --- |
| B (B = 1-10 nM) |  |  |  | 17 ± 6 | 5 ± 1 | 2.7 ± 0.067 | CC[C@@H]1C#Cc2ccccc2O[C@H](C)CN[C@@H](C2(C)CC2)C(=O)N(C)[C@@H](C(C)O)C(=O)N[C@H](Cc2c[nH]c3ccccc23)C(=O)N1 (some centres unmarked) [Compound 1718] |  |
| C (C = 10-100 nM) |  |  |  |  | 44 ± 3 | 1.55 ± 0.183 | CC(O)[C@H]1C(=O)N[C@H](Cc2c[nH]c3ccccc23)C(=O)N[C@H](C)CCc2ccc(F)cc2O[C@H](C)CN[C@@H](C2(C)CC2)C(=O)N1C (some centres unmarked) [Compound 1719] |  |
| B (B = 1-10 nM) |  |  | 99.8 | 14 ± 8 | 9 ± 6 | 2.85 ± 0.267 | CC[C@@H]1C#Cc2c(F)cccc2OCCN[C@@H](C(C)C)C(=O)N(C)[C@@H](C(C)O)C(=O)N[C@H](Cc2c[nH]c3ccccc23)C(=O)N1 (some centres unmarked) [Compound 1726] |  |
| B (B = 1-10 nM) |  |  |  | 59 ± 31 | 12 ± 1 | 1.78 ± 0.067 | CC[C@@H]1CCc2ccc(F)cc2OCCN[C@@H](C2(C)CC2)C(=O)N(C)[C@@H](C(C)O)C(=O)N[C@H](Cc2ccccc2)C(=O)N1 (some centres unmarked) [Compound 1746] |  |
| B (B = 1-10 nM) |  |  | 97.4 | 34 ± 19 | 32 ± 5 | 0.767 ± 0.017 | CC[C@@H]1CCc2ccc(F)cc2OCCN[C@@H](C(C)C)C(=O)N(C)[C@@H](C(C)O)C(=O)N[C@H](Cc2ccc(O)cc2)C(=O)N1 (some centres unmarked) [Compound 1751] |  |
| B (B = 1-10 nM) |  |  | 99.4 | 39 ± 44 | 8 ± 1 | 1.77 ± 0.217 | CC[C@@H]1C#Cc2ccccc2OCCN[C@@H](C(C)C)C(=O)N(C)[C@@H](C(C)O)C(=O)N[C@H](Cc2c[nH]c3ccccc23)C(=O)N1 (some centres unmarked) [Compound 1754] |  |
| B (B = 1-10 nM) |  |  | 99.3 | 7 ± 4 | 12 ± 13 | 2.05 ± 0.467 | CC[C@@H]1C#Cc2ccc(F)cc2OCCN[C@@H](C(C)C)C(=O)N(C)[C@@H](C(C)O)C(=O)N[C@H](Cc2c[nH]c3ccccc23)C(=O)N1 (some centres unmarked) [Compound 1755] |  |
| B (B = 1-10 nM) |  |  | 95.8 |  |  |  | CC(C)[C@@H]1NCC2CCc3cccc(c3O2)CCCNC(=O)[C@@H](Cc2ccccc2)NC(=O)[C@H](C(C)O)N(C)C1=O (some centres unmarked) [Compound 1777] | AUCinf ([3]; Intravenous, 2 mg/kg): 369904 ± 127112 ng·min/mL; Cl ([3]; Intravenous, 2 mg/kg): 6 ± 2 mL/min/kg; Vz ([3]; Intravenous, 2 mg/kg): 0.882 ± 0.272 L/kg; t1/2 ([3]; Intravenous, 2 mg/kg): 1.78 ± 0.067 h; AUCinf ([3]; Oral, 8 mg/kg): 190433 ± 114760 ng·min/mL; Cmax ([3]; Oral, 8 mg/kg): 1075 ± 772 ng/mL; F ([3]; Oral, 8 mg/kg): 13 ± 8%; Tmax ([3]; Oral, 8 mg/kg): 15/30/15/15/15/15 |
| B (B = 1-10 nM) | 35.7 µM | 6 µM |  |  |  |  | CC[C@@H]1NCC2CCc3cccc(c3O2)CCCNC(=O)[C@@H](Cc2ccccc2)NC(=O)[C@H](C(C)O)N(C)C1=O (some centres unmarked) [Compound 1780] | fraction unbound at 60 min, 10 μM [2]: 0.061 |
| A (A <1 nM) |  |  | 92.1 |  |  |  | CC(C)[C@@H]1NCCOc2ccccc2C2CCC(C2)NC(=O)[C@@H](Cc2c[nH]c3ccccc23)NC(=O)[C@H](C(C)O)N(C)C1=O (some centres unmarked) [Compound 1843] |  |
| A (A <1 nM) | 8 µM | 9 µM |  |  |  |  | CC(C)[C@@H]1NCCOc2ccccc2C2CCC(C2)NC(=O)[C@@H](Cc2ccc(F)cc2)NC(=O)[C@H](C(C)O)N(C)C1=O (some centres unmarked) [Compound 1903] | fraction unbound at 60 min, 10 μM [2]: 0.159 |
| B (B = 1-10 nM) | 8.1 µM | 16.3 µM |  |  |  |  | CC(O)[C@H]1C(=O)N[C@H](Cc2ccccc2)C(=O)NCC#Cc2ccc(F)cc2OCCN[C@@H](C2(C)CC2)C(=O)N1C (some centres unmarked) [Compound 1918] | clearance [3, 6]: 14 ± 7 mL/min/kg; half-life [3, 6]: 1.9 ± 0.883 h |
| B (B = 1-10 nM) | 25.7 µM |  |  |  |  |  | CC(C)[C@@H]1NCCOc2cccc(F)c2C#CCNC(=O)[C@@H](Cc2ccccc2)NC(=O)[C@H](C(C)O)N(C)C1=O (some centres unmarked) [Compound 1929] | F ([3]; Oral, 8 mg/kg): 42 ± 51%; Tmax ([3]; Oral, 8 mg/kg): 15/15/30; AUC(0-inf) ([3]; plasma, Intravenous, 2 mg/kg): 1060 ng·h/mL; clearance ([3]; plasma, Intravenous, 2 mg/kg): 32 ± 4 mL/min/kg; half-life ([3]; plasma, Intravenous, 2 mg/kg): 2.83 ± 1.03 h; Vd ([3]; plasma, Intravenous, 2 mg/kg): 7.99 ± 3.7 L/kg; AUC(0-inf) ([3]; plasma, Oral, 8 mg/kg): 1790 ng·h/mL; Cmax [3, 5]: 628 ± 766 ng/mL |

— patent US20110105389A1 (priority 2009, published 2011)
